The results in this text go back to ChEMBL document CHEMBL5500356, “Design, synthesis, and biological evaluation of novel benzimidazole derivatives as anti-cervical cancer agents through PI3K/Akt/mTOR pathway and tubulin inhibition” (Eur J Med Chem, 2024).

Molecules are shown by their SMILES.

In data set [1] the test system is HeLa. The data set is described as follows: Antiproliferative activity against human HeLa cells assessed as cell viability incubated for 48 hrs by MTT assay. In kind it is functional, cell-based. (In general: Formazan colour is commonly taken as a measure of viable cells.)
A short description of data set [2]: Cytotoxicity against human L02 cells assessed as cell viability incubated for 48 hrs by MTT assay. In kind it is toxicity, cell-based.
Data set [3] concerns SiHa. The data set is described as follows: Antiproliferative activity against human SiHa cells assessed as cell viability incubated for 48 hrs by MTT assay. In kind it is functional, cell-based.
A short description of data set [4]: Cytotoxicity against human HEK293T cells assessed as cell viability incubated for 48 hrs by MTT assay. Format: toxicity, cell-based, HEK-293T.
For data set [5], the system named is Ca-Ski. The data set is described as follows: Antiproliferative activity against human Ca-Ski cells assessed as cell viability incubated for 48 hrs by MTT assay. In kind it is functional, cell-based.
The test system of data set [6] is SiHa. The data set is described as follows: Induction of cell cycle arrest in human SiHa cells assessed as accumulation cells at G2/M phase at 16 uM measured after 24 hrs by flow cytometry (reference value: 5.24%). Format: functional. Background: A flow cytometer gives signals particle by particle.
Data set [7] in a line: Acute toxicity in AB-wild type zebrafish embryo assessed as mortalities at 400 uM measured after 96 hrs. Further details: species or system Danio rerio. The conditions noted are these: in vivo, read-out: Activity.
In data set [8] the test system is SiHa. The data set is described as follows: Induction of apoptosis in human SiHa cells assessed as late apoptotic cells at 16 uM incubated for 24 hr by flow cytometry based annexin V-FITC/PI double-staining analysis (reference value: 8.67%). In kind it is functional.
In data set [9] the test system is SiHa. Nature of the data set: Induction of cell cycle arrest in human SiHa cells assessed as accumulation cells at G0/G1 phase at 16 uM measured after 24 hrs by flow cytometry (reference value: 80.45%). Format: functional.
Data set [10] has as its system SiHa. Nature of the data set: Induction of cell cycle arrest in human SiHa cells assessed as accumulation cells at S phase at 16 uM measured after 24 hrs by flow cytometry (reference value: 14.31%). Format: functional.
For data set [11], the system named is SiHa. Nature of the data set: Induction of apoptosis in human SiHa cells assessed as early apoptotic cells at 16 uM incubated for 24 hr by flow cytometry based annexin V-FITC/PI double-staining analysis (reference value: 2.95%). Format: functional.
A short description of data set [12]: Acute toxicity in AB-wild type zebrafish embryo assessed as malformation rate at 400 uM measured after 96 hrs. Further details: species or system Danio rerio. Conditions: in vivo.

The term IC50 denotes the concentration that gives 50% inhibition. For `COc1cc(-c2nc3cc(N4CCOCC4)c(C#Cc4ccccc4F)cc3[nH]2)cc(OC)c1OC`, the results for the IC50 in data set [1], in data set [3] and in [5] were 8.6 µM, over 100 µM and 10.7 µM, respectively. The IC50 at 48 h is 6.98 µM in data set [2] and 38.6 µM in [4].
The matching figures for `COc1cc(-c2nc3cc(N4CCOCC4)c(C#Cc4ccccc4)cc3[nH]2)cc(OC)c1OC`: 8.07 µM, 7.07 µM, 6.45 µM, 9.09 µM and 3.73 µM.
In the case of `COc1cc(OC)c(-c2nc3cc(N4CCOCC4)c(C#Cc4ccccc4F)cc3[nH]2)cc1OC`, the results for the IC50 in data set [1], in data set [3] and in [5] were 20.1 µM, 27.2 µM and 11.5 µM, respectively. The IC50 at 48 h in data set [2] is 9.1 µM; in data set [4], 4.83 µM.
For `COc1cc(-c2nc3cc(N4CCOCC4)c(C#Cc4ccccc4Cl)cc3[nH]2)cc(OC)c1OC`, the IC50 stood at 10.4 µM in data set [1], 7.81 µM in data set [3] and 13.5 µM in [5]. Also, the IC50 at 48 h is over 100 µM in data set [2] and 5.37 µM in [4].
Consider `COc1cc(-c2nc3cc(N4CCOCC4)c(/C=C/C(=O)NC(C)(C)C)cc3[nH]2)cc(OC)c1OC`, for which the figures for the IC50 in [1], in [3] and in data set [5] were 4.21 µM, 17 µM and 16 µM, respectively. For the same compound, the IC50 at 48 h in data set [2] was 9.92 µM; in [4], 11.7 µM.
`COc1cc(-c2nc3cc(N4CCN(C)CC4)c(C#Cc4ccccc4Cl)cc3[nH]2)cc(OC)c1OC`: the IC50 in [1] worked out at 1.73 µM; in [3], 1.4 µM; in data set [5], 3.15 µM. Moreover, the results for the IC50 at 48 h in data set [2] and in data set [4] were 1.29 µM and 0.8 µM, respectively.
Consider `COc1cc(OC)c(-c2nc3cc(N4CCN(C)CC4)c(C#Cc4ccc(Cl)cc4)cc3[nH]2)cc1OC`, for which the IC50 in data set [1] was 1.61 µM; in data set [3] it was 3.03 µM; in data set [5], over 100 µM. Besides, the IC50 at 48 h in [2] is 1.38 µM; in data set [4], 1.64 µM.
The corresponding values for `COc1cc(OC)c(-c2nc3cc(N4CCOCC4)c(C#Cc4ccc(Cl)cc4)cc3[nH]2)cc1OC` are 16.7 µM, over 100 µM, over 100 µM, over 100 µM and 36.1 µM.
Consider `COc1cc(OC)c(-c2nc3cc(N4CCN(C)CC4)c(C#Cc4ccccc4Cl)cc3[nH]2)cc1OC`, for which the values for the IC50 in [1], in data set [3] and in data set [5] were 2.96 µM, 6.07 µM and 5.34 µM, respectively. For the same compound, the IC50 at 48 h in [2] is 2.04 µM; in data set [4], 4.55 µM.
As for `COc1cc(OC)c(-c2nc3cc(N4CCOCC4)c(C#Cc4ccccc4Cl)cc3[nH]2)cc1OC`, the figures for the IC50 in data set [1], in data set [3] and in [5] were 16.9 µM, 24.4 µM and 22.5 µM, respectively. The IC50 at 48 h in data set [2] was 18.9 µM; in data set [4], 0.68 µM.
The corresponding values for `COc1cc(-c2nc3cc(N4CCN(C)CC4)c(C#Cc4ccccc4)cc3[nH]2)cc(OC)c1OC` are 4.96 µM, 5.05 µM, 4.34 µM, 3.82 µM and 1.2 µM.
Turning to `COc1cc(OC)c(-c2nc3cc(N4CCOCC4)c(C#Cc4ccccc4)cc3[nH]2)cc1OC`, the IC50 came out at 19.3 µM in data set [1], 25.1 µM in [3] and 19.5 µM in data set [5]. Also, the concentration for half-maximal inhibition (IC50) at 48 h was 34.1 µM in data set [2] and 13.2 µM in [4].
Regarding `COc1cc(OC)c(-c2nc3cc(N4CCOCC4)c(C#Cc4ccc(C(F)(F)F)cc4)cc3[nH]2)cc1OC`, the IC50 in [1] is 29.3 µM; in data set [3], over 100 µM; in [5] it was over 100 µM. For the same compound, the IC50 at 48 h in data set [2] and in data set [4] was over 100 µM each time.
With `COc1ccc(C#Cc2cc3[nH]c(-c4cc(OC)c(OC)c(OC)c4)nc3cc2N2CCOCC2)cc1`, the IC50 in data set [1] was determined as 3.67 µM; in [3], 26.8 µM; in data set [5] it was 9.11 µM. For the same compound, the IC50 at 48 h in data set [2] was 8.82 µM; in [4] it was 2.18 µM.
On to `COc1cc(-c2nc3cc(N4CCOCC4)c(/C=C/C(=O)N(C)C)cc3[nH]2)cc(OC)c1OC`, for which the IC50 in data set [1] is 14.5 µM; in data set [3], over 100 µM; in data set [5], 48.5 µM. Moreover, the IC50 at 48 h in [2] is over 100 µM; in data set [4], 2.53 µM.
As to `COc1cc(OC)c(-c2nc3cc(N4CCN(C)CC4)c(C#Cc4ccccc4)cc3[nH]2)cc1OC`, the IC50 in data set [1] was 5.25 µM; in data set [3], 6.16 µM; in data set [5] it was over 100 µM. Besides, the figures for the IC50 at 48 h in data set [2] and in data set [4] were 6.59 µM and 4.07 µM, respectively.
As for `COc1cc(-c2nc3cc(N4CCN(C)CC4)c(C#Cc4ccc(Cl)cc4)cc3[nH]2)cc(OC)c1OC`, the IC50 in [1] was 3.45 µM; in data set [3] it was 5.49 µM; in [5] it was 3.97 µM. The IC50 at 48 h in data set [2] stood at 2.07 µM; in [4], 4.12 µM.
As for `COc1cc(-c2nc3cc(N4CCN(C)CC4)c(C#Cc4ccc(C(F)(F)F)cc4)cc3[nH]2)cc(OC)c1OC`, the values for the IC50 in [1], in data set [3] and in data set [5] were 3.13 µM, 6.54 µM and 1.38 µM, respectively. The IC50 at 48 h in [2] came to 2.3 µM; in data set [4], 1.41 µM.
Turning to `Nc1cc(C(F)(F)F)c(-c2cc(N3CCOCC3)nc(N3CCOCC3)n2)cn1` [BUPARLISIB], the Activity stood at 28.47% in [6]; 7.83% in [8]; 62.27% in data set [9]; 11.27% in data set [10]; 10.27% in data set [11]; 0% in [12]. In addition, the results for the half-inhibitory concentration (IC50) in data set [1], in data set [3] and in data set [5] were 9.06 µM, 11.9 µM and 0.74 µM, respectively. The mortality at 96 h, 400 µM in data set [7] stood at 0%. Also, the IC50 at 48 h turned out to be 59.2 µM in data set [2] and 6.11 µM in data set [4].
On to `COc1ccc(C#Cc2cc3[nH]c(-c4cc(OC)c(OC)c(OC)c4)nc3cc2N2CCN(C)CC2)cc1`, for which the values for the IC50 in data set [1], in data set [3] and in data set [5] were 2.07 µM, 3.13 µM and 1.39 µM, respectively. In addition, the IC50 at 48 h in data set [2] worked out at 2.29 µM; in data set [4], 0.41 µM.
For `COc1cc(-c2nc3cc(N4CCOCC4)c(C#Cc4ccc(Cl)cc4)cc3[nH]2)cc(OC)c1OC`, the IC50 was determined as 3.23 µM in data set [1], 20.9 µM in data set [3] and 14.4 µM in [5]. Also, the results for the IC50 at 48 h in [2] and in data set [4] were 12.8 µM and 15.9 µM, respectively.
